The values below come from ChEMBL document CHEMBL1201862, “PubChem BioAssay data set” (2004).

Calls of active or inactive are those of the source. Bounds are passed on as bounds.

A short description of assay [1]: Trypanosoma cruzi growth suppression in host cells – NIH3T3 host cells, beta-gal luminescence, confirmation (AID 2044).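 Note: intracellular parasites grown in NIH/3T3 mouse fibroblasts as host cells; luminescent beta-galactosidase reporter signal from transgenic T. cruzi replicating inside host cells; inhibitors lower the luminescence signal.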 The class given is functional, cell-based.
Assay [2] can be described thus: NIH3T3 cell viability loss – ATP luminescence, mouse fibroblasts, counter-screen, dose response (AID 2010).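 Note: cells exposed to compound for about 90 hours before reading.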 The class given is functional, cell-based. Background: The purpose of a counterscreen is to sort out artefacts and off-target activity.
The target in assay [3] is T1, High affinity choline transporter 1 (Homo sapiens, UniProt Q9GZV3).
T1 sequence (Q9GZV3 whole entry): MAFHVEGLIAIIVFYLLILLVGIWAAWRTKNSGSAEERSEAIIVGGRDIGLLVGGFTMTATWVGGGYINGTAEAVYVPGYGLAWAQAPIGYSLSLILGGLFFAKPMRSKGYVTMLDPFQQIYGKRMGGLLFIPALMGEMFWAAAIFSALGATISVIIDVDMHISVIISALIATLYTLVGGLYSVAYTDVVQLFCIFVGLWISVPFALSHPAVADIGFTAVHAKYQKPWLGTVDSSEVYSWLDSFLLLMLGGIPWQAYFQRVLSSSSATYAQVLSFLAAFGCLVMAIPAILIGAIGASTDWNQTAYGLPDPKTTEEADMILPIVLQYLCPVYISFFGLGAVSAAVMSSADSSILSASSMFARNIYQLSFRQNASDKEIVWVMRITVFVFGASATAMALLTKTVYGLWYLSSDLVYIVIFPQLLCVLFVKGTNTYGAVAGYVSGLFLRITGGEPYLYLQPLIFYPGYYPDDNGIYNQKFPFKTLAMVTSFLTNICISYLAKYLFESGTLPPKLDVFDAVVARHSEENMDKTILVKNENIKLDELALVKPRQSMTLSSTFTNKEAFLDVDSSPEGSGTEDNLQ
Briefly: human choline transporter blockers, potency – cell-based, 5-point CRC, membrane potential dye, dose response (AID 504840). The format is functional.

Assay [4] deals with T1, High affinity choline transporter 1. Briefly: human choline transporter blockers, potency – cell-based, 10-point CRC, membrane potential dye, dose response (AID 588401).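 Note: membrane potential dye fluorescence of choline-evoked depolarization via CHT.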 The class given is functional.
In assay [5] the target is Melanin-concentrating hormone receptor 1 (Homo sapiens, UniProt Q99705). As to the kind of experiment: Late-stage fluorescence-based counterscreen for antagonists of the G-protein coupled receptor 7 (GPR7): cell-based dose response assay to identify antagonists of the melanin-concentrating hormone receptor 1 (MCHR1) Set 6. The class given is functional.
Assay [6] concerns the target Neuropeptides B/W receptor type 1 (Homo sapiens, UniProt P48145). As to the kind of experiment: human NPBW1 receptor blockade, IC50 – cell-based, fluorescence, dose response, set 6, late-stage follow-up (AID 588583). The format is functional.
The target of assay [7] is Ribosomal protein S6 kinase alpha-3 (Homo sapiens, UniProt P51812). The class given is functional.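 Note: measured within a kinome-wide profiling panel.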
In assay [8] the target is Tyrosine-protein kinase JAK2 (Homo sapiens, UniProt O60674). The format is functional.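 Note: JAK2 tested as one member of a kinase panel.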
In assay [9] the target is Protein kinase C zeta type (Homo sapiens, UniProt Q05513). The format is functional.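 Note: measured as one member of a broad kinase profiling panel.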
Assay [10] concerns the target Serine/threonine-protein kinase PLK3 (Homo sapiens, UniProt Q9H4B4). The format is functional.
Assay [11] has as its target RAC-gamma serine/threonine-protein kinase (Homo sapiens, UniProt Q9Y243). The format is functional.
Assay [12] deals with 5'-AMP-activated protein kinase catalytic subunit alpha-1 (Homo sapiens, UniProt Q13131). The format is functional.
Assay [13] addresses Protein kinase C delta type (Homo sapiens, UniProt Q05655). The class given is functional.
The target of assay [14] is Serine/threonine-protein kinase PLK4 (Homo sapiens, UniProt O00444). The class given is functional.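 Note: PLK4 measured as one member of a kinome-wide kinase profiling panel.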
Assay [15] deals with Ribosomal protein S6 kinase beta-1 (Homo sapiens, UniProt P23443). The format is functional.
In assay [16] the target is Death-associated protein kinase 3 (Homo sapiens, UniProt O43293). The format is functional.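 Note: measured as one member of a kinome-wide profiling panel.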
Assay [17] deals with Serine/threonine-protein kinase Chk2 (Homo sapiens, UniProt O96017). The format is functional.
Sequence of Serine/threonine-protein kinase Chk2 (O96017 whole entry): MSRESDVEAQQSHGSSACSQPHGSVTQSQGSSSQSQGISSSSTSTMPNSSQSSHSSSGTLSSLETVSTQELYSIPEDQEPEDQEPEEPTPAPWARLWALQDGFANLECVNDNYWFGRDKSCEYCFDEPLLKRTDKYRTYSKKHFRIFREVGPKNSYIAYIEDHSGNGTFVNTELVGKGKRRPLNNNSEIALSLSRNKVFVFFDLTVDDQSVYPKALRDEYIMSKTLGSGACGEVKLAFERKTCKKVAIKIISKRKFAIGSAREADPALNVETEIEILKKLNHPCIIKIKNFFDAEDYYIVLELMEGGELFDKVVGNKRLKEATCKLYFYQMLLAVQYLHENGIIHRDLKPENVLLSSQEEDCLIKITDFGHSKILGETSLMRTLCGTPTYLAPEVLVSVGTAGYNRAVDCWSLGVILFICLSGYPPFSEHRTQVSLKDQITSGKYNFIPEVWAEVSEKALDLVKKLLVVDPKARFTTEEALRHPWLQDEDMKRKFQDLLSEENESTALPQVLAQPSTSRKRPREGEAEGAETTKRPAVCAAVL
For assay [18], the target named is Mitogen-activated protein kinase 8 (Homo sapiens, UniProt P45983). The format is functional.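 Note: value comes from one member of a kinome-wide kinase profiling panel.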
Assay [19] concerns the target Serine/threonine-protein kinase pim-1 (Homo sapiens, UniProt P11309). The format is functional.
The next assay deals with Aurora kinase A (Homo sapiens, UniProt O14965). The class given is functional.
Assay [20] has as its target MAP kinase-activated protein kinase 2 (Homo sapiens, UniProt P49137). The class given is functional.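 Note: measured as one member of a kinome-wide kinase panel.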
The target of assay [21] is Casein kinase II subunit alpha (Homo sapiens, UniProt P68400). The class given is functional.
Assay [22] has as its target Serine/threonine-protein kinase PAK 4 (Homo sapiens, UniProt O96013). The format is functional.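 Note: value obtained within a kinome profiling panel in which PAK4 was one of the panel members.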
Assay [23] addresses Serine/threonine-protein kinase PAK 1 (Homo sapiens, UniProt Q13153). The format is functional.
For assay [24], the target named is Fibroblast growth factor receptor 1 (Homo sapiens, UniProt P11362). The class given is functional.
Assay [25] has as its target Tyrosine-protein kinase JAK3 (Homo sapiens, UniProt P52333). The format is functional.
Assay [26] concerns the target Mitogen-activated protein kinase 9 (Homo sapiens, UniProt P45984). The class given is functional.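 Note: value from a kinome panel profiling assay, MAPK9 panel entry.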
The next assay addresses LIM domain kinase 1 (Homo sapiens, UniProt P53667). As to the kind of experiment: Navigating the Kinome. Panel member name: LIMK1. The format is functional.
The target of assay [27] is Tyrosine-protein kinase Blk (Homo sapiens, UniProt P51451). The class given is functional.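 Note: obtained as one member of a kinome-wide kinase assay panel.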
The target in assay [28] is MAP/microtubule affinity-regulating kinase 3 (Homo sapiens, UniProt P27448). The format is functional.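 Note: MARK3 affinity measured as one member of a kinome panel.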
A further assay concerns the target Insulin receptor (Homo sapiens, UniProt P06213). The format is functional.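 Note: insulin receptor kinase tested as one member of a kinome-wide kinase panel.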
The target in assay [29] is Protein kinase C gamma type (Homo sapiens, UniProt P05129). The class given is functional.
Assay [30] concerns the target Proto-oncogene tyrosine-protein kinase Src (Homo sapiens, UniProt P12931). The format is functional.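 Note: SRC entry within a kinome-wide kinase profiling panel.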
Assay [31] addresses Glycogen synthase kinase-3 alpha (Homo sapiens, UniProt P49840). The format is functional.
Assay [32] has as its target Inhibitor of nuclear factor kappa-B kinase subunit alpha (Homo sapiens, UniProt O15111). The format is functional.
In assay [33] the target is MAP kinase-activated protein kinase 3 (Homo sapiens, UniProt Q16644). The format is functional.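 Note: value comes from a kinome-wide profiling panel in which MAPKAPK3 is one of the panel members.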
The target in assay [34] is Serine/threonine-protein kinase Chk1 (Homo sapiens, UniProt O14757). The format is functional.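 Note: measured as one member of a kinome-wide kinase profiling panel.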
Sequence of Serine/threonine-protein kinase Chk1 (O14757 whole entry, canonical isoform): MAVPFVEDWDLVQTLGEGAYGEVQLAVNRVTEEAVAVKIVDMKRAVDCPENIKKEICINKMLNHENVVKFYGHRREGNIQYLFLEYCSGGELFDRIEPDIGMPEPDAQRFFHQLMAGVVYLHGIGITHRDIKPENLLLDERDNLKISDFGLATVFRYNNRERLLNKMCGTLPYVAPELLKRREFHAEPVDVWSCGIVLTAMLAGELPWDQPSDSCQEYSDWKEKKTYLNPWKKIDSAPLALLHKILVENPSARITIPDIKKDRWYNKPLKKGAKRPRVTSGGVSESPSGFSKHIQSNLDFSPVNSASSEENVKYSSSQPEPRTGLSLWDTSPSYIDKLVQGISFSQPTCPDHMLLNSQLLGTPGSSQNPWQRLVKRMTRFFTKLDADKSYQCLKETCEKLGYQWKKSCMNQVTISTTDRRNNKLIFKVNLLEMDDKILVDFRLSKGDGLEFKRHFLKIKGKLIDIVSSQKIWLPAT
Assay [35] has as its target Casein kinase I isoform delta (Homo sapiens, UniProt P48730). The format is functional.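 Note: measured as one member (CSNK1D) of a kinome panel.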
The target in assay [36] is Vascular endothelial growth factor receptor 2 (Homo sapiens, UniProt P35968). The class given is functional.
Assay [37] has as its target Cyclin-dependent kinase 5 (Homo sapiens, UniProt Q00535). The class given is functional.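 Note: CDK5 measured as one member of a kinase profiling panel.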
The target in assay [38] is Mitogen-activated protein kinase 1 (Homo sapiens, UniProt P28482). The class given is functional.
In the next assay the target is Aurora kinase B (Homo sapiens, UniProt Q96GD4). The class given is functional.
Assay [39] deals with Interleukin-1 receptor-associated kinase 4 (Homo sapiens, UniProt Q9NWZ3). The class given is functional.
The target of assay [40] is RAC-alpha serine/threonine-protein kinase (Homo sapiens, UniProt P31749). The format is functional.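 Note: AKT1 affinity measured as one member of a kinome-wide kinase profiling panel.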
Assay [41] deals with Vascular endothelial growth factor receptor 3 (Homo sapiens, UniProt P35916). The class given is functional.
Sequence of Vascular endothelial growth factor receptor 3 (P35916 whole entry): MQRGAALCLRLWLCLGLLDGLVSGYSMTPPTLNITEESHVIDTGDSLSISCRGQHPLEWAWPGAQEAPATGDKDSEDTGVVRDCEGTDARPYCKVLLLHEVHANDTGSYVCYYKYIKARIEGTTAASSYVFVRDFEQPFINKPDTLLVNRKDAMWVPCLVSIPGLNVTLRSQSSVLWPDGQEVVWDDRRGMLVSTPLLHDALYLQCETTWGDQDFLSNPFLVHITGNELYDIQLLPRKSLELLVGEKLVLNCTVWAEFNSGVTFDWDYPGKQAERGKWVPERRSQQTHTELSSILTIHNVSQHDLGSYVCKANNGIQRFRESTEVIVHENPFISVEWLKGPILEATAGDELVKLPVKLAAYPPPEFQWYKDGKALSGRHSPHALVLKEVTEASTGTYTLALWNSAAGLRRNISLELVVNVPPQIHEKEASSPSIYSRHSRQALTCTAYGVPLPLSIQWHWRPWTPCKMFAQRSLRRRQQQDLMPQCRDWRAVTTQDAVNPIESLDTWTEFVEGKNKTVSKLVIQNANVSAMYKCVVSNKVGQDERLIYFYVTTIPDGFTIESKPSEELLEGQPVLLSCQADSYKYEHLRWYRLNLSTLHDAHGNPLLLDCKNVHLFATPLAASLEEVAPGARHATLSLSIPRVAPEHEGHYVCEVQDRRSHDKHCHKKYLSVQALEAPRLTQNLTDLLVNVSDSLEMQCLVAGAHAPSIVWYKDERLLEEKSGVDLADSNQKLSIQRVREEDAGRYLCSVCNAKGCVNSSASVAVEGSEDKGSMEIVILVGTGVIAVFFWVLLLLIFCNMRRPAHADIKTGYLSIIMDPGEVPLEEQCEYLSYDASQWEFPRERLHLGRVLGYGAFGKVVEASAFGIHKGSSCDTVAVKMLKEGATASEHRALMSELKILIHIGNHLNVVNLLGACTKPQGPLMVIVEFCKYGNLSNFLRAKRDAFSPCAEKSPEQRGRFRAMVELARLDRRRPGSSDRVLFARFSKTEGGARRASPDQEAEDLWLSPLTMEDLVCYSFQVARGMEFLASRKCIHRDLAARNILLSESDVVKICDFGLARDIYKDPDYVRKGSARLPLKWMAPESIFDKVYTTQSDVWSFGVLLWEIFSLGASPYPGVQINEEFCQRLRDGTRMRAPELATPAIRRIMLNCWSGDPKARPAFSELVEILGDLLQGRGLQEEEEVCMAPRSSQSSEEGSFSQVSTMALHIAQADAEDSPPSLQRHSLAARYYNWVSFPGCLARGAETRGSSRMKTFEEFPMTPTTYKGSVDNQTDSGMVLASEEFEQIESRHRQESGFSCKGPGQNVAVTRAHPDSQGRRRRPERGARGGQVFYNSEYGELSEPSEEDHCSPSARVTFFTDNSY
The target of assay [42] is Rho-associated protein kinase 1 (Homo sapiens, UniProt Q13464). The class given is functional.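 Note: measured within a broad kinome-wide panel profiling many kinases.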
Assay [43] deals with Calcium/calmodulin-dependent protein kinase type 1 (Homo sapiens, UniProt Q14012). The class given is functional.
The target of assay [44] is Cyclin-dependent kinase 1 (Homo sapiens, UniProt P06493). The class given is functional.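 Note: Kinome-wide panel profiling, with the target listed as panel member CDC2.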
In assay [45] the target is 3-phosphoinositide-dependent protein kinase 1 (Homo sapiens, UniProt O15530). The class given is functional.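 Note: value comes from the Navigating the Kinome panel, PDPK1 member.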
Assay [46] addresses Serine/threonine-protein kinase Nek2 (Homo sapiens, UniProt P51955). The class given is functional.
Assay [47] has as its target Serine/threonine-protein kinase PLK1 (Homo sapiens, UniProt P53350). The class given is functional.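 Note: PLK1 measured as one member of a kinome-wide profiling panel.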
Assay [48] deals with Glycogen synthase kinase-3 beta (Homo sapiens, UniProt P49841). The format is functional.
The target in assay [49] is BDNF/NT-3 growth factors receptor (Homo sapiens, UniProt Q16620). The format is functional.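 Note: NTRK2 measured as one member of a broad kinome-wide kinase profiling panel.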
Assay [50] addresses Receptor tyrosine-protein kinase erbB-4 (Homo sapiens, UniProt Q15303). The class given is functional.
For assay [51], the target named is cAMP-dependent protein kinase catalytic subunit alpha (Homo sapiens, UniProt P17612). The class given is functional.
The target of assay [52] is Mitogen-activated protein kinase 12 (Homo sapiens, UniProt P53778). The class given is functional.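 Note: measured as one member of a kinome-wide kinase profiling panel.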
In assay [53] the target is Serine/threonine-protein kinase MRCK alpha (Homo sapiens, UniProt Q5VT25). The class given is functional.
Assay [54] deals with Dual specificity tyrosine-phosphorylation-regulated kinase 1A (Homo sapiens, UniProt Q13627). The class given is functional.
Assay [55] deals with Inhibitor of nuclear factor kappa-B kinase subunit beta (Homo sapiens, UniProt O14920). The format is functional.
In assay [56] the target is Serine/threonine-protein kinase 3 (Homo sapiens, UniProt Q13188). The class given is functional.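 Note: measured as one member of a kinome-wide kinase panel.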

Sequence of Proto-oncogene tyrosine-protein kinase Src (P12931 2-536 limits assumed): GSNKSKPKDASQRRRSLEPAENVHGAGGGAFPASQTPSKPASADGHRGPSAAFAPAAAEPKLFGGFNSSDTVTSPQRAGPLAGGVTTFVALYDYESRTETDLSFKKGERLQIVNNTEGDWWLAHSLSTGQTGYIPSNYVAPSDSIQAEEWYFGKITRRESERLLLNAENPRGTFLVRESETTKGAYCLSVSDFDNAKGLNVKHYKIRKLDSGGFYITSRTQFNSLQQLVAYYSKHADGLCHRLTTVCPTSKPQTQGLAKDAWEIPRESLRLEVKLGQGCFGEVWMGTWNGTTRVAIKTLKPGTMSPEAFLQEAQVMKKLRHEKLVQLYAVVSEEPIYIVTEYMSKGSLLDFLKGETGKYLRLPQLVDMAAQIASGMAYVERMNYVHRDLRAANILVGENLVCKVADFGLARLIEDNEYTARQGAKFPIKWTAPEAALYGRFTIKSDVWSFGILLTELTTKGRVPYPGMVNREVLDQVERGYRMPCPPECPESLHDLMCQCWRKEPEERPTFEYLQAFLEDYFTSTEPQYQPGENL
Sequence of Insulin receptor (P06213 28-758 limits assumed): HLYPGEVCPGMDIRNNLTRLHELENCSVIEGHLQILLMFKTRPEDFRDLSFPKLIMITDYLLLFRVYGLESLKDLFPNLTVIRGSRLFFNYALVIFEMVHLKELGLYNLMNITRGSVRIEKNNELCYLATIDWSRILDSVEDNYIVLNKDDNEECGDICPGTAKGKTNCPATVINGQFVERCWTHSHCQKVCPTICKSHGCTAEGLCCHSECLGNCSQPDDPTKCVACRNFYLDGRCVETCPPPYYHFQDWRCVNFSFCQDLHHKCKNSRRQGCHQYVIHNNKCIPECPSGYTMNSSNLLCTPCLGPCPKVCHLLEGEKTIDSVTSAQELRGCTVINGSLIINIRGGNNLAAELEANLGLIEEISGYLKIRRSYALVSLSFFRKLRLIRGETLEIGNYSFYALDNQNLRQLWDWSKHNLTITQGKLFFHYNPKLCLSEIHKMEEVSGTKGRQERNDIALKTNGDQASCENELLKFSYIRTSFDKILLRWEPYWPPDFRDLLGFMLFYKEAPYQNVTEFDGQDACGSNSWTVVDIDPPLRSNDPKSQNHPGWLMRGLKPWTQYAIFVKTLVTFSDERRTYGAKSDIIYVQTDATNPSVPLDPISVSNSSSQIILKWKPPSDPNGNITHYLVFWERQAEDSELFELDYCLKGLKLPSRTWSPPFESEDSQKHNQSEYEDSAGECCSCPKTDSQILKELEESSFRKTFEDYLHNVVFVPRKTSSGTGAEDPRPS
Sequence of Insulin receptor (P06213 763-1382 limits assumed): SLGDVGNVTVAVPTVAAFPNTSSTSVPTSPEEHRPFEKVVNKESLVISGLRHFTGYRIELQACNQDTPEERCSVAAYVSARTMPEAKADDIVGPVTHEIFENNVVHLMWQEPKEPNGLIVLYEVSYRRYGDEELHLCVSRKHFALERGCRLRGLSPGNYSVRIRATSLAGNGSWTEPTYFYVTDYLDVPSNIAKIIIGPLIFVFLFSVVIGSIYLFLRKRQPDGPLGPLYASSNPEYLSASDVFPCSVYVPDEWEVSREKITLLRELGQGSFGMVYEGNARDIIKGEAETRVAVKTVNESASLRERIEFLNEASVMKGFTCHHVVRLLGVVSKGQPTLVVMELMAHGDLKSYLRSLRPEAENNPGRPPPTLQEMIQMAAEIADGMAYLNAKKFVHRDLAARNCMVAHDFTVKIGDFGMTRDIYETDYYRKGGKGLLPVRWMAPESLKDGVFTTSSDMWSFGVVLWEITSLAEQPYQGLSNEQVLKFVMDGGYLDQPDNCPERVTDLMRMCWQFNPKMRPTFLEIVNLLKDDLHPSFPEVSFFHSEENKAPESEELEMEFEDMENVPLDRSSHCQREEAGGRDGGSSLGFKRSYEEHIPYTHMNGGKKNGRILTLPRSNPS
Sequence of Serine/threonine-protein kinase Nek2 (P51955 whole entry): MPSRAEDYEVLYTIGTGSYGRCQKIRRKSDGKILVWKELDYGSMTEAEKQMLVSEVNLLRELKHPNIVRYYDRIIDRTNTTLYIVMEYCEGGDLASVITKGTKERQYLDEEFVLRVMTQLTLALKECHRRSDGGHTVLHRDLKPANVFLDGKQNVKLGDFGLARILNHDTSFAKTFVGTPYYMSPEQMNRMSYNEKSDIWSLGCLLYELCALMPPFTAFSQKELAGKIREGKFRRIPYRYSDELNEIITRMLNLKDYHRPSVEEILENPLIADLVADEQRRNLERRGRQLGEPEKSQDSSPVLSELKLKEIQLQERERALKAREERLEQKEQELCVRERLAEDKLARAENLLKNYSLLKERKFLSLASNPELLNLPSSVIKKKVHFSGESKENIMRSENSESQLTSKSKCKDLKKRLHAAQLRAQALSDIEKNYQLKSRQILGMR
Sequence of Serine/threonine-protein kinase pim-1 (P11309 whole entry): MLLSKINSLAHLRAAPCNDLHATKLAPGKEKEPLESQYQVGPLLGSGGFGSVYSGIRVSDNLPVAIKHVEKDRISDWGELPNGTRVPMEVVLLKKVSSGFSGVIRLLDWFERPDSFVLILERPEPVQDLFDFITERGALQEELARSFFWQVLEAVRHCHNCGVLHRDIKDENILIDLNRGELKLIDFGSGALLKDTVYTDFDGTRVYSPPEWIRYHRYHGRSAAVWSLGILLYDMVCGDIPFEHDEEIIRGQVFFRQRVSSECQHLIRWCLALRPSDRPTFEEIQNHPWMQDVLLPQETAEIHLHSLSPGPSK

Broadly, the EC50 is the concentration needed to bring the measured effect to its halfway point. For orientation: IC50 means the concentration that inhibits the measured activity by half. As for `CCOCCCN(C)C1CCN(C(=O)c2oc3ccccc3c2NC(=O)c2ccc(F)cc2)CC1`, the EC50 in [1] is 0.267 µM (active); in [2], > 60 µM (not active). In addition, the IC50 in assay [3] was 6.85 µM (active); in assay [4], 6.69 µM (active).

As to `Cc1ccccc1C(C#N)c1c(Cl)cnn(Cc2cccc3ccccc23)c1=O` (stereo not given), the IC50 in assay [5] and in assay [6] was 0.821 µM (active) each time.

The term Ki denotes the equilibrium dissociation constant of an inhibitor or competing ligand from its target. On to `CCCCCCCCCCCCOc1ccc(NC(=N)N)cc1NC(=N)N` [LAUROGUADINE], for which the Ki in assay [7] is 3.98 µM (active); in assay [8] it was 1 µM (active); in assay [9], 1.26 µM (active); in assay [10], > 7.94 µM (inactive); in assay [11], > 10 µM (inactive); in assay [12] it was > 10 µM (inactive). Moreover, the Ki in [13] is 0.631 µM (active); in [14], > 3.98 µM (inactive); in assay [15], 1.26 µM (active); in assay [16] it was 0.316 µM (active); in assay [17] it was > 10 µM (inactive); in assay [18] it was > 3.16 µM (inactive). Also, the Ki in assay [19] was 1.26 µM (active); at Aurora kinase A it was > 6.31 µM (inactive); in assay [20], 3.98 µM (active); in assay [21], > 6.31 µM (inactive); in assay [22], > 5.01 µM (inactive); in [23], 1.26 µM (active). The Ki in [24] was > 5.01 µM (inactive); in assay [25], 0.794 µM (active); in [26], > 3.98 µM (inactive); at LIM domain kinase 1 it was 2 µM (active); in [27] it was 1 µM (active); in assay [28], > 6.31 µM (inactive). Moreover, the Ki at Insulin receptor was > 5.01 µM (inactive); in assay [29], 2.51 µM (active); in [30], > 5.01 µM (inactive); in [31], > 7.94 µM (inactive); in [32], 1.26 µM (active); in [33] it was 1.58 µM (active). The Ki in [34] is > 7.94 µM (inactive); in [35], > 7.94 µM (inactive); in assay [36], > 7.94 µM (inactive); in assay [37], > 10 µM (inactive); in assay [38] it was > 7.94 µM (inactive); at Aurora kinase B, > 6.31 µM (inactive). Besides, the Ki was 3.98 µM (active) in assay [39]; 3.98 µM (active) in [40]; > 6.31 µM (inactive) in assay [41]; 2.51 µM (active) in [42]; 3.98 µM (active) in assay [43]; 3.98 µM (active) in assay [44]. Also, the Ki in [45] is > 3.98 µM (inactive); in [46], > 10 µM (inactive); in [47], > 7.94 µM (inactive); in assay [48], > 6.31 µM (inactive); in [49] it was 2 µM (active); in [50], 1.58 µM (active). Further, the Ki in [51] is > 7.94 µM (inactive); in [52], > 6.31 µM (inactive); in assay [53] it was 2.51 µM (active); in assay [54] it was > 6.31 µM (inactive); in assay [55] it was > 3.16 µM (inactive); in assay [56], 3.98 µM (active).
